In patent publication US5171882A, “Leukotriene antagonists” (Eli Lilly and Company, priority 1990, dated 1992):
Read-outs that look alike come from different tables or passages of the source.

Assays:
LTD4 receptors = biological target: T1, LTD4 receptors (Cavia porcellus, UniProt Q2NNR5); test: Antagonism of LTD4 (guinea pig ileum and trachea, pA2); details: *Estimated; negative log of KB; antagonist 30 minute incubation
T1 construct: A section of terminal ileum was removed, the lumen cleaned, and the tissue divided into 2.5 cm segments; from tissue; host or cells: ileum and trachea of guinea pig (ileum: male Hartley)
T1 sequence (Q2NNR5 1-340): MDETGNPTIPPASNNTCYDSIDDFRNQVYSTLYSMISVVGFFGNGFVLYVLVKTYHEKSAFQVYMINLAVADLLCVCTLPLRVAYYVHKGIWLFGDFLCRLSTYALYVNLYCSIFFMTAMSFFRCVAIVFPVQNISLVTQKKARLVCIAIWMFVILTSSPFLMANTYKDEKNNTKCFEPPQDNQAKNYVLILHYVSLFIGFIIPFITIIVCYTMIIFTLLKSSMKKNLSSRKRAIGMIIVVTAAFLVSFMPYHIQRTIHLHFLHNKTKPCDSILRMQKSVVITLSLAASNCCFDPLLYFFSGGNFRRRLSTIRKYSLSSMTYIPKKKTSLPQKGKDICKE
Procedure: Male, Hartley guinea pigs weighing 200-450 grams were killed by decapitation. A section of terminal ileum was removed, the lumen cleaned, and the tissue divided into 2.5 cm segments. The ilea were mounted in 10 ml tissue baths containing Krebs-bicarbonate solution of the following composition in mmoles/liter: KCl, 4.6; CaCl2 ·2H2 O, 1.2; KH2 PO4, 1.2; MgSO4 ·7H2O, 1.2; NaCl, 118.2; NaHCO3, 24.8; and dextrose, 10.0. The bath fluid was maintained at 37° C. and aerated with 95 percent oxygen and 5 percent CO2 In addition, the buffer contained 1×10^-6 M atropine to reduce ileal spontaneous activity. Isometric measurements were made with a Grass FT03C. force-displacement transducer and recorded on a Grass polygraph as change in grams of force. A passive force of 0.5 g was applied to the tissues. After an appropriate equilibration period, single submaximal control responses to pure LTD4 were obtained. Following a five minute exposure of the ileum to an experimental drug, the control concentration of LTD4 was added to the tissue bath. The response of the ileum to LTD4 in the presence of the drug was compared to the response in the absence of the drug.
A more detailed analysis of LTD4 antagonism was then made. In these experiments, cumulative concentration-response curves were obtained to LTD4 in guinea pig ileum and trachea. This was followed by a 30 minute incubation with various concentrations of the experimental drug. The concentration response curve to LTD4 was then repeated in the presence of the antagonist. Only one concentration of antagonist was used on a single tissue. KB values were calculated by the method of Furchgott [Ann. N.Y. Acad. Sci., 139, 553 (1967)] using the following equation. [formula]
Dose ratio refers to the concentration of agonist required to elicit 50 percent of the maximal response ED50) in the presence of the antagonist divided by the ED50 in the absence of the antagonist.

[1] = system: LTB4 induced cell aggregation (neutrophils); test: LTB4 Induced Aggregation Assay (neutrophils); format: cell-based, guinea pig; details: Cavia porcellus, Neutrophil; for inhibition at 1 µM: drug concentration 10^-6 M; for inhibition at 0.1 µM: drug concentration 10^-7 M; for inhibition at 10 µM: drug concentration 10^-5 M
Procedure: Neutrophils were elicited by intraperitoneally injecting 20 ml of Dulbecco's calcium and magnesium deficient phosphate buffered saline (PBS) containing 2% oyster glycogen into each of two male Hartley guinea pigs. Eighteen hours later, cells accumulating in the peritoneal cavity were harvested by washing the peritoneum with approximately 100 ml of PBS containing 10 units/ml of heparin. The cells were centrifuged at 200 g for 8 min. and the supernatant fluid discarded. Erythrocytes present in the pellet were lyzed by vigorous agitation of the cells in 9 ml of ice-cold distilled water for approximately 30 seconds. Physiological osmolarity was restored by adding 1.5 ml of 0.6 M KCl. Twelve milliliters of PBS were added and the resuspended cells centrifuged at 200 g for 8 min. at 4°. The pellet was resuspended in 5 ml PBS. The cell concentration was determined and additional buffer added to make the concentration […]; cells per ml.
The aggregation assay was carried out by measuring the amount of LTB4 induced cell aggregation with a Payton single channel aggregometer, model 300B. The apparatus was calibrated by placing a cuvette containing the cell suspension in it and adjusting the zero knob so that the recorder pen rested at 1 mV. A cuvette containing 20% less cells was then inserted into the aggregometer and the output knob adjusted so that the recorder pen rested at 9 mV. With these settings an 8 mV change causes the recorder pen to move 200 mm. When conducting an assay, 0.5 ml of cell suspension (5×10^6 cells) was added to each cuvette. Five microliters of a solution of test compound were then added. Most compounds were initially dissolved in DMSO at 1×10^-2 M and then diluted appropriately with PBS so that the test compound concentration was 1×10^-5 to 1×10^-7 M and the test DMSO concentration was 0.1% or less. A few of the more water insoluble compounds were first dissolved in DMSO at 1 to 6×10^-3 M and then diluted appropriately with PBS. The test concentration of DMSO was never higher than 1%. After a 2 minute equilibration period of cells and test compound, 5 μl of a solution containing CaCl2 (100 mM) and MgCl2 (50 mM) were added. One minute later, 5 μ l of PBS containing LTB4 (3×10^-7 M) were added. The change occurring in the amount of light transmitted during the subsequent minute was measured. […] During a typical experiment, several measurements of the amount of aggregation induced by LTB4 were made and an average value determined. The effect of a test compound on this aggregation was determined by the following formula: [formula]

[2] = biological target: T2, specific receptor on the membrane of human neutrophils (leukotriene B4) (Homo sapiens, UniProt Q15722); test: Inhibition of Binding of ^3 H-LTB4 to Peripheral Human Neutrophils; details: for inhibition at 10 µM / inhibition at 1 µM / inhibition at 0.1 µM: read-out: LTB4 Binding Inhibition; for inhibition at 0.1 µM: drug concentration 10^-7 M
T2 construct: Freshly-prepared buffy coat layers from two individuals were obtained from a local blood donor center; endogenous in cells; host or cells: intact human peripheral blood neutrophils from buffy coats of two donors
T2 sequence (Q15722 whole entry): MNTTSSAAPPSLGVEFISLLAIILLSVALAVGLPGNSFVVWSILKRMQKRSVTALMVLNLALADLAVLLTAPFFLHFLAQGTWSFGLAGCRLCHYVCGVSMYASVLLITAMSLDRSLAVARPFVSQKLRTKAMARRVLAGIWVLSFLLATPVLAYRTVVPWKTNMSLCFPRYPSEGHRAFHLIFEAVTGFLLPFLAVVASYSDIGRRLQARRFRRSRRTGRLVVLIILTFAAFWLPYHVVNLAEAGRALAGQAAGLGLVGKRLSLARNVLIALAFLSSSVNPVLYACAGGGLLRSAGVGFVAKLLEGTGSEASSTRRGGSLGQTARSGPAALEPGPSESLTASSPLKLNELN
Procedure: Cells used in the assay were isolated by standard techniques of centrifugation on Ficoll-Hypaque, dextran 70 sedimentation and hypotonic lysis. The following procedure was used. Freshly-prepared buffy coat layers from two individuals were obtained from a local blood donor center. The cells were mixed and diluted to 484 ml with phosphate buffered saline containing heparin (10 units/ml) and heat-inactivated calf serum (5%). This was divided into 20 ml aliquots and the aliquots layered on top of Ficoll-Paque (12 ml). The material was then centrifuged at 500 g for 40 minutes at room temperature. The resulting upper layer of platelets and mononuclear cells was discarded. The lower layer containing erythrocytes and neutrophils was retained. Buffer was added (1 ml per 4 ml of lower layer) and the suspension mixed. For each milliliter of this mixture, 0.33 ml of 6% Macrodex was added. After stirring, the cells were allowed to sediment for 1 hour at 37° C. The resulting erythrocyte pellet was discarded and the neutrophil enriched supernatant fluid centrifuged at 500 g for 10 minutes at 4° C. Erythrocytes still present in this cell pellet were lysed by incubating the cells with 5-8 ml ice-cold distilled water for 30-45 seconds. Subsequently, the volume was made up to 50 ml by addition of ice-cold buffer and the cells resuspended. The suspension was then centrifuged at 300 g for 10 minutes at 4° C. The cells were finally resuspended at a cell density of 2×10^7 cells/ml in the assay buffer This buffer consisted of Hanks' balanced salt solution and 0.1% ovalbumin (pH 7.3).
The amount of bound ^3 H-LTB4 was then measured and compared with the amount bound in the absence of test compound. The assay was carried out in microcentrifuge tubes by adding first 10 μl test compound dissolved in DMSO, followed by adding 20 μl ^3 H-LTB4 diluted in assay buffer, and finally adding 500 μl of the cell suspension. At the end of the 10 minutes incubation, 300 μl of a mixture of dibutyl and dinonyl phthalate (7:2) were added and the tubes centrifuged for 2 minutes in a microcentrifuge. The radioactivity bound to the cell pellet was measured by scintillation spectroscopy. Appropriate corrections for nonspecific bonding of ^3 H-LTB4 were made.

[3] = drug concentration 10^-5 M, 0.1-0.2 nM ^3 H-LTB4, 10 minutes at 4° C
[4] = drug concentration 10^-6 M, 0.1-0.2 nM ^3 H-LTB4, 10 minutes at 4° C
[5] = 0.1-0.2 nM ^3 H-LTB4, 10 minutes at 4° C

Row | SMILES | Kb (LTD4 receptors) | inhibition at 10 µM [2, 3] | LTB4 Binding Inhibition [2, 4] | inhibition at 1 µM [2, 4] | inhibition at 1 µM [1] | inhibition at 0.1 µM [1] | inhibition at 0.1 µM [2, 5] | inhibition at 10 µM [1] | inhibition at 10 µM [2]
1 | CCCCCCCCCCOc1ccc(C(=O)c2ccccc2C(=O)O)cc1CC(=O)O [Example 20, 5-(2-Carboxybenzoyl)-2-(decyloxy)benzeneacetic acid] | 1000 nM | 71% | 35 percent inhibition | – | 78% | 32% | – | – | –
2 | CCCCCCCCCCOc1ccc(C(=O)c2cccc(-c3nnn[nH]3)c2)cc1CC(=O)O [Example 24, 2-(Decyloxy)-5-[3-(1H-tetrazol-5-yl)benzoyl]benzeneacetic acid] | 398 nM | 93% | – | 28% | – | – | – | – | –
3 | CCCCCCCCCCOc1ccc(C(=NO)c2cccc(C(=O)O)c2)cc1CCC(=O)O [Example 52, 5-[(3-Carboxyphenyl)(hydroxyimino)methyl]-2-(decyloxy)benzenepropanoic acid] | 661 nM | – | – | 61% | 89% | 38% | 17% | 94% | 92%
4 | CCCCCCCCCCOc1ccc(C(O)c2cccc(C(=O)O)c2)cc1CC(=O)O (stereo not drawn) [Example 45, 5-[(3--Carboxyphenyl)hydroxymethyl]-2-(decyloxy)benzeneacetic acid] | 2000 nM | 78% | – | 19% | 11% | – | – | 77% | –
5 | CCCCCCCCCCOc1ccc(C(=O)c2ccccc2CC(=O)O)cc1CCC(=O)O [Example 33, 5-[2-(Carboxymethyl)benzoyl]-2-(decyloxy)benzenepropanoic acid] | 1150 nM | – | – | 79% | 94% | 45% | 17% | – | 100%

Further lines, with some results ahead:

Row | Kb (LTD4 receptors) | inhibition at 10 µM [2, 3] | LTB4 Binding Inhibition [2, 4] | inhibition at 1 µM [2, 4] | SMILES | inhibition at 1 µM [1] | inhibition at 0.1 µM [1] | inhibition at 0.1 µM [2, 5] | inhibition at 10 µM [1] | inhibition at 10 µM [2]
6 | 501 nM | 76% | – | 26% | CCCCCCCCCCOc1ccc(C(=O)c2cccc(C(=O)O)c2)cc1Cc1nnn[nH]1 [Example 3, 3-[4-(Decyloxy)-3-(1-tetrazol-5-ylmethyl]benzoyl]benzoic acid] | 84% | 2% | – | – | –
7 | 955 nM | 98% | – | 71% | CCCCCCCCCCOc1ccc(C(=O)c2cccc(-c3nnn[nH]3)c2)cc1CCC(=O)O [Example 29, 2-(Decyloxy)-5-[3-(1H-tetrazol-5-yl)benzoyl]benzenepropanoic acid] | 72% | 14% | 11% | – | –
8 | 324 nM | 96% | – | 55% | CCCCCCCCCCOc1ccc(C(=O)c2cccc(C(=O)O)c2)cc1CCc1nnn[nH]1 [Example 28, 3-{4-(Decyloxy)-3-[2-(1H-tetrazol-5-yl)ethyl]benzoyl}benzoic acid] | – | – | – | – | –
9 | 479 nM | 88% | – | 41% | CCCCCCCCCCOc1ccc(Oc2cccc(C(=O)O)c2)cc1CCC(=O)O [Example 56, 5-(3-Carboxyphenoxy)-2-(decyloxy)benzenepropanoic acid] | – | – | – | – | –
10 | 1950 nM | 95% | – | 62% | CCCCCCCCCCOc1ccc(C(=O)c2cccc(C(=O)O)c2)cc1CCC(=O)O [Example 22, 5-(3-Carboxybenzoyl)-2-(decyloxy)benzenepropanoic acid] | – | 83% | 17% | – | –
